From the NIST ThermoML archive (doi:10.1016/j.jct.2016.02.017)

Assay: Boiling temperature at pressure P
Conditions: Liquid, Ebulliometric method (Recirculating still)

O [water]
Conditions | Boiling temperature at pressure P [°C]
12.1 kPa | 50.7
25.8 kPa | 67.2
41.8 kPa | 78.7
59.7 kPa | 85.5
74.1 kPa | 91.2
91.8 kPa | 97.7
